Measured values: ChEMBL document CHEMBL5537125, “Discovery of C-3 isoxazole substituted thiochromone S,S-dioxide derivatives as potent and selective inhibitors for monoamine oxidase B (MAO-B)” (Eur J Med Chem, 2024)
Calls of active or inactive are those of the source. The rule behind the calls is not given here.

Key:
[1] = molecular target: T1, Amine oxidase [flavin-containing] B (Homo sapiens, UniProt P27338); experiment: Inhibition of human recombinant MAO-B using tyramine as substrate incubated for 20 mins by fluorometric assay
T1 sequence (P27338 whole entry): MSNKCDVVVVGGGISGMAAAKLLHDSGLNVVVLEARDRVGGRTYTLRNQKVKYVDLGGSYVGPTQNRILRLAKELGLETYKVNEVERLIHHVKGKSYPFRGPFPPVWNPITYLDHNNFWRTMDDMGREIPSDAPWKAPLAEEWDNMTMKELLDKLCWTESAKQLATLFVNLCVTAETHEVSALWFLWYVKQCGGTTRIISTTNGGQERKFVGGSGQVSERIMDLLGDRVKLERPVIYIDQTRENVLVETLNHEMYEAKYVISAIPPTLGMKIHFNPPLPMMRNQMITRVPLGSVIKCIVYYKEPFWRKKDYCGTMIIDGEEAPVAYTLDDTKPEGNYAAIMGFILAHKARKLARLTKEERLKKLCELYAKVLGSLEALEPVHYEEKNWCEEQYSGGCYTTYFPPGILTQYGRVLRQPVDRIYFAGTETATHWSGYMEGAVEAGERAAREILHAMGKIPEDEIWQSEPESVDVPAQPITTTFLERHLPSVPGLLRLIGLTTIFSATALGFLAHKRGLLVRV

[2] = n-Octanol/water partition coefficient, logP of the compound at pH 7.4 by HPLC analysis; format: physicochemical
[3] = organism: Homo sapiens; experiment: Selectivity index, ratio of IC50 for human recombinant MAO-A to IC50 for human recombinant MAO-B
[4] = molecular target: T2, Amine oxidase [flavin-containing] A (Homo sapiens, UniProt P21397); experiment: Inhibition of human recombinant MAO-A using tyramine as substrate at 10 uM incubated for 20 mins by fluorometric assay relative to control
T2 sequence (P21397 whole entry): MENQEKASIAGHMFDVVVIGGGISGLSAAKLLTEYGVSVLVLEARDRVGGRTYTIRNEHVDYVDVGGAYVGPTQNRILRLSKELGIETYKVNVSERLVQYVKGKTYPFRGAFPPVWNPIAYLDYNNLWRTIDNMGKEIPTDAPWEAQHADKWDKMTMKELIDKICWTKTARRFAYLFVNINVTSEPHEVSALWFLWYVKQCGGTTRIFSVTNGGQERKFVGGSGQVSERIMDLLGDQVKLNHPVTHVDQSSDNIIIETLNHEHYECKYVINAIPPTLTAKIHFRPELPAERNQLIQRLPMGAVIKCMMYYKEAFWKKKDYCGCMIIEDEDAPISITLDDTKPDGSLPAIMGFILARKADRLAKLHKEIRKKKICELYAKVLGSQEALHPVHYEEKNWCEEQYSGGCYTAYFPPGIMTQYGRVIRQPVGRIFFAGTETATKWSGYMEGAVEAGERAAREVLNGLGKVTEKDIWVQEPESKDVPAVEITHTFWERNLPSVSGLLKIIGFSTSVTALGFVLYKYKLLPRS

[5] = test system: HCT-116; experiment: Antiproliferative activity against human HCT-116 cells assessed as reduction in cell viability incubated for 24 hrs by MTT assay; format: functional, cell-based; settings: HCT-116, 24 h
[6] = test system: SH-SY5Y; experiment: Cytotoxicity against differentiated human SH-SY5Y cells assessed as reduction in cell viability by measuring MTT reduction at 4 uM incubated for 24 hrs by MTT assay relative to control; format: toxicity, cell-based
[7] = molecular target: T2, Amine oxidase [flavin-containing] A; experiment: Inhibition of human recombinant MAO-A using tyramine as substrate incubated for 20 mins by fluorometric assay
[8] = test system: MCF7; experiment: Antiproliferative activity against human MCF7 cells assessed as reduction in cell viability incubated for 24 hrs by MTT assay; format: functional, cell-based; settings: MCF7, 24 h
[9] = test system: VSMC; experiment: Cytotoxicity against differentiated human VSMC cells assessed as reduction in cell viability at 0.5 to 4 uM incubated for 24 hrs by MTT assay; format: toxicity, cell-based; settings: dose 0.5-4 µM
[10] = test system: MGC-803; experiment: Antiproliferative activity against human MGC-803 cells assessed as reduction in cell viability at 0.5 to 128 uM incubated for 24 hrs by MTT assay; format: functional, cell-based; settings: dose 0.5-128 µM
[11] = test system: HepG2; experiment: Antiproliferative activity against human HepG2 cells assessed as reduction in cell viability incubated for 24 hrs by MTT assay; format: functional, cell-based; settings: HepG2, 24 h
[12] = Solubility of compound in DMSO; format: physicochemical
[13] = Solubility of compound in phosphate buffer; format: physicochemical
[14] = test system: VSMC; experiment: Cytotoxicity against human VSMC cells assessed as reduction in cell viability at 0.5 uM incubated for 24 hrs by MTT assay relative to control; format: toxicity, cell-based
[15] = test system: SH-SY5Y; experiment: Induction of ROS production in human SH-SY5Y cells assessed as increase in oxidative damage at 2 to 4 uM incubated for 24 hrs by DCFH-DA staining based fluorescence microscopic analysis; format: functional, cell-based; settings: dose 2-4 µM
[16] = test system: MGC-803; experiment: Antiproliferative activity against human MGC-803 cells assessed as reduction in cell viability incubated for 24 hrs by MTT assay; format: functional, cell-based; settings: MGC-803, 24 h
[17] = Cytotoxicity against differentiated human SH-SY5Y cells assessed as cell proliferation at 4 uM incubated for 24 hrs by MTT assay relative to control; format: toxicity, cell-based; settings: read-out: Activity
[18] = Cytotoxicity against differentiated human SH-SY5Y cells assessed as cell proliferation at 0.5 uM incubated for 24 hrs by MTT assay relative to control; format: toxicity, cell-based; settings: read-out: Activity
[19] = molecular target: T1, Amine oxidase [flavin-containing] B; experiment: Inhibition of human MAO-B
[20] = Selectivity index, ratio of IC50 for MAO-A (unknown origin) to IC50 for human recombinant MAO-B
[21] = test system: HepG2; experiment: Antiproliferative activity against human HepG2 cells assessed as reduction in cell viability at 0.5 to 128 uM incubated for 24 hrs by MTT assay; format: functional, cell-based; settings: dose 0.5-128 µM

Compound: Cc1cccc(-c2cc(-c3csc4ccccc4c3=O)on2)c1
- IC50 [1]: 0.53 µM
- logD [2]: 3.44

Compound: Cc1ccc(C2=NOC(c3ccc(Cl)c(Cl)c3)C2)cc1 (stereo unspecified)
- Ratio IC50 [3]: > 8350

Compound: Cc1ccc(-c2cc(C3=CS(=O)(=O)c4ccccc4C3=O)on2)cc1
- IC50 [1]: 0.0268 µM
- logD [2]: 2.77

Compound: O=C1C(c2cc(-c3ccc(C(F)(F)F)cc3)no2)=CS(=O)(=O)c2ccccc21
- IC50 [1]: 0.0318 µM
- logD [2]: 2.37
- inhibition at 10 µM [4]: 2.6%

Compound: O=c1c(-c2cc(-c3ccccc3)no2)csc2ccccc12
- IC50 [1]: 1.23 µM
- logD [2]: 3.72

Compound: O=C1C(c2cc(-c3ccc(Cl)cc3)no2)=CS(=O)(=O)c2ccccc21
- IC50 [5]: 53.4 µM
- IC50 [1]: 0.0034 µM
- Activity [6]: < 90%
- IC50 [7]: 38.3 µM
- IC50 [8]: 3.77 µM
- Activity [9]: Non-Toxic
- logD [2]: 1.82
- Activity [10]: inactive
- IC50 [11]: 55.9 µM

Compound: O=c1c(-c2cc(-c3ccc(Cl)cc3)no2)csc2ccccc12
- solubility [12]: Insoluble
- solubility [13]: Insoluble

Compound: COc1cccc(-c2cc(C3=CS(=O)(=O)c4ccccc4C3=O)on2)c1
- Activity [14]: 111%
- Activity [15]: inactive
- IC50 [5]: 47 µM
- IC50 [1]: 0.0051 µM
- IC50 [8]: 4.21 µM
- Activity [9]: Non-Toxic
- logD [2]: 2.39
- IC50 [16]: 43 µM
- inhibition at 10 µM [4]: 1%
- IC50 [11]: 43.3 µM

Compound: O=c1c(-c2cc(-c3ccc(C(F)(F)F)cc3)no2)csc2ccccc12
- IC50 [1]: 0.0113 µM
- IC50 [7]: 85.4 µM
- logD [2]: 2.55
- Ratio IC50 [3]: 7580

Compound: O=c1c(-c2cc(-c3cccc(C(F)(F)F)c3)no2)csc2ccccc12
- IC50 [1]: 0.0351 µM
- IC50 [7]: 161 µM
- logD [2]: 3.71
- Ratio IC50 [3]: 4580

Compound: Cc1cccc(-c2cc(C3=CS(=O)(=O)c4ccccc4C3=O)on2)c1
- IC50 [1]: 0.0982 µM
- logD [2]: 3.23

Compound: Cc1ccc(-c2cc(-c3csc4ccccc4c3=O)on2)cc1
- IC50 [1]: 0.0622 µM
- logD [2]: 3.2

Compound: O=C1C(c2cc(-c3ccccc3)no2)=CS(=O)(=O)c2ccccc21
- IC50 [1]: 0.896 µM
- logD [2]: 3.26

Compound: COc1ccc(-c2cc(C3=CS(=O)(=O)c4ccccc4C3=O)on2)cc1
- viability at 24 h, 4 µM [17]: 120%
- IC50 [5]: 78.1 µM
- IC50 [1]: 0.0034 µM
- Activity [6]: < 90%
- viability at 24 h, 0.5 µM [18]: 105%
- IC50 [7]: 64.4 µM
- IC50 [8]: 6.02 µM
- Activity [9]: Non-Toxic
- logD [2]: 2.62
- Activity [10]: inactive
- IC50 [11]: 63.1 µM

Compound: Cc1ccccc1-c1cc(C2=CS(=O)(=O)c3ccccc3C2=O)on1
- IC50 [1]: 0.137 µM
- logD [2]: 2.69

Compound: O=c1c(-c2cc(-c3ccc(F)cc3)no2)csc2ccccc12
- solubility [12]: Insoluble
- solubility [13]: Insoluble

Compound: Cc1ccccc1-c1cc(-c2csc3ccccc3c2=O)on1
- IC50 [1]: 0.109 µM
- logD [2]: 3.99

Compound: O=C1C(c2cc(-c3cccc(F)c3)no2)=CS(=O)(=O)c2ccccc21
- IC50 [1]: 0.44 µM
- logD [2]: 2.46

Compound: COc1ccc(-c2cc(-c3csc4ccccc4c3=O)[nH]n2)cc1
- IC50 [1]: 0.0185 µM
- logD [2]: 3.43

Compound: O=C1C(c2cc(-c3cccc(C(F)(F)F)c3)no2)=CS(=O)(=O)c2ccccc21
- Activity [14]: 113%
- Activity [15]: inactive
- IC50 [5]: 21.4 µM
- IC50 [1]: 0.0019 µM
- Activity [6]: < 90%
- IC50 [8]: 5.82 µM
- Activity [9]: Non-Toxic
- logD [2]: 3.39
- IC50 [16]: 39.6 µM
- inhibition at 10 µM [4]: 10%
- IC50 [11]: 83.2 µM

Compound: COc1cccc(-c2cc(-c3csc4ccccc4c3=O)on2)c1
- solubility [12]: Insoluble
- solubility [13]: Insoluble

Compound: CC(=O)c1ccc(OCc2ccccc2)cc1O
- IC50 [19]: 0.007 µM
- Ratio IC50 [20]: 1190

Compound: O=c1c(-c2cc(-c3cccc(Cl)c3)no2)csc2ccccc12
- solubility [12]: Insoluble
- solubility [13]: Insoluble

Compound: COc1ccc(-c2cc(-c3csc4ccccc4c3=O)on2)cc1
- solubility [12]: Insoluble
- solubility [13]: Insoluble

Compound: O=C1C(c2cc(-c3ccccc3C(F)(F)F)no2)=CS(=O)(=O)c2ccccc21
- viability at 24 h, 4 µM [17]: 119%
- IC50 [5]: 52.1 µM
- IC50 [1]: 0.0023 µM
- Activity [6]: < 90%
- viability at 24 h, 0.5 µM [18]: 108%
- IC50 [8]: 16 µM
- Activity [9]: Non-Toxic
- logD [2]: 2.63
- IC50 [16]: 37.7 µM
- inhibition at 10 µM [4]: 3.8%
- IC50 [11]: 99.3 µM

Compound: O=C1C(c2cc(-c3ccc(F)cc3)no2)=CS(=O)(=O)c2ccccc21
- IC50 [1]: 0.149 µM
- logD [2]: 2.43

Compound: O=c1c(-c2cc(-c3ccccc3C(F)(F)F)no2)csc2ccccc12
- viability at 24 h, 4 µM [17]: 121%
- IC50 [1]: 0.002 µM
- Activity [6]: < 90%
- IC50 [7]: 21.2 µM
- Activity [21]: inactive
- IC50 [8]: 37.9 µM
- Activity [9]: Non-Toxic
- logD [2]: 4.37
- Activity [10]: inactive

Compound: O=C1C(c2cc(-c3cccc(Cl)c3)no2)=CS(=O)(=O)c2ccccc21
- IC50 [1]: 0.0226 µM
- logD [2]: 4.17

Compound: O=c1c(-c2cc(-c3cccc(F)c3)no2)csc2ccccc12
- solubility [12]: Insoluble
- solubility [13]: Insoluble
